From PMC7044277 (Nature Communications, 2020)
“And” between values parts separate entries of the source, which are not always exact repeats. Equal entries are not always repeated.

Columns and labels:
[1] = target: DRD2 (D2 long receptor) wild-type (Homo sapiens, UniProt P14416); experiment: Radioligand competition binding, [3H]-N-methylspiperone, HEK293T membranes
DRD3 wild-type = DRD3 wild-type (Homo sapiens, UniProt P35462); experiment: Radioligand competition binding, [3H]-N-methylspiperone
[2] = target: T1, DRD4 (D4.4 variant) wild-type (Homo sapiens, UniProt P21917); experiment: as above
T1 sequence (P21917 1-419): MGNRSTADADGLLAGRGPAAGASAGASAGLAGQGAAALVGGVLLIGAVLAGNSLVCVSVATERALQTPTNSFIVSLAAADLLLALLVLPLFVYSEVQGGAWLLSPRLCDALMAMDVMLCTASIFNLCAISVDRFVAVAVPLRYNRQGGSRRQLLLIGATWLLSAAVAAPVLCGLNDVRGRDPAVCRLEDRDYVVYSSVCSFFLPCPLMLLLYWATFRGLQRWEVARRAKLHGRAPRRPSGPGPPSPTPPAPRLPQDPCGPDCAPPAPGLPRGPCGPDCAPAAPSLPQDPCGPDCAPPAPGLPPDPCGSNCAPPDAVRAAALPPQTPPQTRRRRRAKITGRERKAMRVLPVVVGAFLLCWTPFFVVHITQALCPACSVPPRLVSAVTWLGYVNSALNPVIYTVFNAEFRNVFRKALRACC

DRD2 (D2 long receptor) [3] = target: T2, DRD2 (D2 long receptor) (Homo sapiens, UniProt P14416); experiment: Gαi/o-mediated cAMP inhibition (GloSensor split-luciferase cAMP reporter), HEK293T; type: cell-based; settings: for Response, Fig_S11b dose-response: individual replicates;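 on all read-outs here: compounds applied 15 min at room temperature, then luciferin plus 400 nM isoproterenol to raise cAMP through endogenous β2-adrenergic receptors, luminescence read 15 min later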
T2 sequence (P14416 whole entry): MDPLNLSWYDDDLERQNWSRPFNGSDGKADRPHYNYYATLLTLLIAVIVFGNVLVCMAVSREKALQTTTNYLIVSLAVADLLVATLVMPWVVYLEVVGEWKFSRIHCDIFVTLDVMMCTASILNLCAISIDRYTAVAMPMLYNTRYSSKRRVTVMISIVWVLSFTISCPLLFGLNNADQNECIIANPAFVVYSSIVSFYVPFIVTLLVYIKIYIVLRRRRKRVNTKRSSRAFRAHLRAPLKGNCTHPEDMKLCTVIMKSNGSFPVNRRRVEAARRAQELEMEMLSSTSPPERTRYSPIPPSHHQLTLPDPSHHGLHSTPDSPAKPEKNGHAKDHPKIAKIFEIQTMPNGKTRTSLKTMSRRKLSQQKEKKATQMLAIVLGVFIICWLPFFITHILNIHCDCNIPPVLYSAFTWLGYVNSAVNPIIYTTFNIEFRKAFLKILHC

DRD4 (D4.4 variant) [4] = target: T3, DRD4 (D4.4 variant) (Homo sapiens, UniProt P21917); experiment: Gαi/o-mediated cAMP inhibition (GloSensor); type: cell-based; settings: DRD4; agonist, cAMP inhibition; read-out: EC50 ± SEM
T3 sequence (P21917 1-419): T1 sequence (P21917 1-419)

DRD2 (D2 long receptor) [5] = target: T2, DRD2 (D2 long receptor); experiment: β-arrestin2 recruitment (Tango), HTLA cells; type: cell-based; settings: for Response, Fig_S11c dose-response: individual replicates
DRD3 = DRD3 (Homo sapiens, UniProt P35462); experiment: β-arrestin2 recruitment (Tango); type: cell-based; settings: DRD3, Tango
Sequence of DRD3 (P35462 whole entry): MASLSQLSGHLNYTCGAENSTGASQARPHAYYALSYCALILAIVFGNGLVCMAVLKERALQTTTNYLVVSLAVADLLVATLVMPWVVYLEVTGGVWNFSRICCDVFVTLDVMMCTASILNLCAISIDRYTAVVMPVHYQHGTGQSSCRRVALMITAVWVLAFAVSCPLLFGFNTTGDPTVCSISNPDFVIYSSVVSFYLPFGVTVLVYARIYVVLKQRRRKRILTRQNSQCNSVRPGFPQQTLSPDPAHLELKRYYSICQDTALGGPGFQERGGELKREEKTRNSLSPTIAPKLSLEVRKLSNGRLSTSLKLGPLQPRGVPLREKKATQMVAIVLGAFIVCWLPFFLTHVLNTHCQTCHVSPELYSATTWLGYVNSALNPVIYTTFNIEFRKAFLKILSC

DRD4 (D4.4 variant) [6] = target: T3, DRD4 (D4.4 variant); experiment: β-arrestin2 recruitment (Tango); type: cell-based; settings: DRD4; Tango; read-out: EC50 ± SEM
DRD2 F1103.28A = DRD2 F1103.28A (Homo sapiens, UniProt P14416, F110A); type: binding; design: expressed in transfected cells; host or cells: HEK293T (ATCC CRL-11268); settings: DRD2 F1103.28A
Sequence of DRD2 F1103.28A (P14416 whole entry F110A): as the sequence (P14416 whole entry) above, with F110A counted along it

Sequence of DRD2 (D2 long receptor) wild-type (P14416 whole entry): as the sequence (P14416 whole entry) above
Sequence of DRD3 wild-type (P35462 whole entry): as the sequence (P35462 whole entry) above

CCCOc1cccc2cc(C(C)NCC3(O)CCCCC3)oc12.Cl (centres unmarked) [O5LE6]
Ki ([1]; DRD2, [3H]-methylspiperone (0.8-1.0 nM), read-out: Ki): 2510 nM
pKi ± SEM ([1]; DRD2 wild-type): 5.60±0.27
Ki (DRD3 wild-type; DRD3, [3H]-methylspiperone (0.8-1.0 nM), read-out: Ki): 390 nM
pKi ± SEM (DRD3 wild-type; DRD3 wild-type): 6.41±0.20
Ki ([2]; DRD4, [3H]-methylspiperone (0.8-1.0 nM), read-out: Ki): 6600 nM
pKi ± SEM ([2]; DRD4 wild-type): 5.18±0.16
EC50 (DRD2 (D2 long receptor) [3]; DRD2, agonist, Gαi/o-mediated cAMP inhibition, read-out: EC50 ± SEM): 0.51 ± 0.22 nM
Emax relative to quinpirole response (DRD2 (D2 long receptor) [3]; DRD2, cAMP inhibition): 92.80%
Response, Fig_S11b dose-response (DRD2 (D2 long receptor) [3]; Log[Drug] -5): 93.7387 and 96.4518 and 83.3289 and 97.2506 and 100.948 and 91.5558 and 103.412 and 92.2091 and 101.183
Response, Fig_S11b dose-response (DRD2 (D2 long receptor) [3]; Log[Drug] -5.52): 82.1384 and 82.3875 and 75.0785 and 87.4334 and 93.0858 and 74.7688 and 89.9797 and 94.4943 and 85.5765
Response, Fig_S11b dose-response (DRD2 (D2 long receptor) [3]; Log[Drug] -6): 92.7696 and 95.5936 and 84.8792 and 92.7883 and 90.7908 and 90.8333 and 98.9533 and 107.927 and 83.4028
Response, Fig_S11b dose-response (DRD2 (D2 long receptor) [3]; Log[Drug] -6.52): 97.1163 and 91.7176 and 84.6854 and 100.523 and 99.588 and 84.586 and 94.4943 (2×) and 87.9175
Response, Fig_S11b dose-response (DRD2 (D2 long receptor) [3]; Log[Drug] -7): 88.7275 and 92.9358 and 71.1749 and 92.7033 and 88.1559 and 76.2138 and 94.4943 and 90.0354 and 94.6058
Response, Fig_S11b dose-response (DRD2 (D2 long receptor) [3]; Log[Drug] -7.52): 77.9025 and 80.4772 and 73.7773 and 81.6111 and 84.246 and 79.2737 and 92.3206 (2×) and 90.0912
Response, Fig_S11b dose-response (DRD2 (D2 long receptor) [3]; Log[Drug] -8): 77.3211 and 65.3055 and 54.0098 and 88.3259 and 67.3316 and 76.7238 and 92.3764 and 94.6058 and 90.1469
Response, Fig_S11b dose-response (DRD2 (D2 long receptor) [3]; Log[Drug] -8.52): 58.6056 and 55.6709 and 54.785 and 76.7663 and 68.819 and 71.6664 and 72.5342 and 65.79 and 68.0195
Response, Fig_S11b dose-response (DRD2 (D2 long receptor) [3]; Log[Drug] -9): 60.5713 and 46.8115 and 46.2578 and 72.3889 and 53.7745 and 57.9819 and 43.7184 and 46.0036 and 36.9186
Response, Fig_S11b dose-response (DRD2 (D2 long receptor) [3]; Log[Drug] -11): 6.418 and 5.781 and 25.106 and 20.5831 and 9.873 and -2.9186 and 1.972 and -15.9196 and 1.6931
Response, Fig_S11b dose-response (DRD2 (D2 long receptor) [3]; Log[Drug] -11.52): -0.171 and -1.0016 and 12.1684 and 15.5258 and 10.8339 and -7.0018 and -2.6544
Response, Fig_S11b dose-response (DRD2 (D2 long receptor) [3]; Log[Drug] -12): 10.388 and -0.6478 and -16.2541
EC50 (DRD4 (D4.4 variant) [4]): > 10000 nM
Emax relative to quinpirole response (DRD2 (D2 long receptor) [5]; DRD2, Tango): 96.83%
EC50 (DRD2 (D2 long receptor) [5]; DRD2, β-arrestin2 recruitment (Tango), read-out: EC50 ± SEM): 48 ± 17.4 nM
response, Fig_S11c dose-response source data (DRD2 (D2 long receptor) [5]; Fig_S11c, Log[Drug] -5, replicate values): 92.0049 and 94.8711 and 101.869 and 86.3956 and 96.7296 and 94.1831 and 124.768 and 128.356
Response, Fig_S11c dose-response (DRD2 (D2 long receptor) [5]; Log[Drug] -6.52): 78.0067 and 72.6033 and 81.7269
Response, Fig_S11c dose-response (DRD2 (D2 long receptor) [5]; Log[Drug] -7): 59.3634 and 78.1496 and 92.3943 and 62.4498 and 64.4647 and 75.7752 and 66.3683 and 83.054 and 11.3874
Response, Fig_S11c dose-response (DRD2 (D2 long receptor) [5]; Log[Drug] -7.52): 39.0633 and 46.4823 and 48.2261 and 47.7888 and 46.5069 and 50.1562 and 52.6803 and 36.834 and 2.983
Response, Fig_S11c dose-response (DRD2 (D2 long receptor) [5]; Log[Drug] -8): 13.2042 and 18.1697 and 22.7864 and 24.8922 and 32.8443 and 29.0019 and 29.5472 and 40.4681 and 3.216
Response, Fig_S11c dose-response (DRD2 (D2 long receptor) [5]; Log[Drug] -8.52): 6.043 and 5.645 and 6.29 and 8.275 and 9.219 and 10.0453 and 7.5026 and 13.6733
Response, Fig_S11c dose-response (DRD2 (D2 long receptor) [5]; Log[Drug] -9): 3.483 and 3.9317 and 4.775 and 3.72 and 3.708 and 4.581 and 2.217 and 12.7509 and 0.7411
Response, Fig_S11c dose-response (DRD2 (D2 long receptor) [5]; Log[Drug] -9.52): 2.993 and 3.331 and 4.098 and 2.754 and 3.737 and 4.1942 and 7.991 and 10.1775 and 1.675
Response, Fig_S11c dose-response (DRD2 (D2 long receptor) [5]; Log[Drug] -10): 3.128 and 3.469 and 3.576 and 3.051 and 3 and 3.543 and 4.136 and 3.1859 and 0.7745
Response, Fig_S11c dose-response (DRD2 (D2 long receptor) [5]; Log[Drug] -10.52): 3.13 and 3.099 and 3.417 and 2.557 and 2.786 and 3.353 and 2.31 and 1.747 and 0.1927
Response, Fig_S11c dose-response (DRD2 (D2 long receptor) [5]; Log[Drug] -11): 2.735 and 2.569 and 3.311 and 2.422 and 2.816 and 3.208 and 1.747 and 3.739 and 0.4891
Response, Fig_S11c dose-response (DRD2 (D2 long receptor) [5]; Log[Drug] -11.52): 2.576 and 2.946 and 3.152 and 2.7257 and 2.6254 and 2.896 and 3.227 and 4.708 and 2.264
Response, Fig_S11c dose-response (DRD2 (D2 long receptor) [5]; Log[Drug] -12): 2.314 (2×) and 2.658 and 2.679 and 2.551 and 2.481 and 2.532 and 1.9407
Emax relative to quinpirole response (DRD3): 53.92%
EC50 (DRD3; read-out: EC50 ± SEM): 2070 ± 524 nM
EC50 (DRD4 (D4.4 variant) [6]): > 10000 nM
pKi ± SEM (DRD2 F1103.28A): 6.17±0.24
Ki (DRD2 F1103.28A; read-out: Ki): 680 nM
